Laboratory results as given in patent US20220177476A1, “Crystal Forms of (S)-4-(8-amino-3-(1-(but-2-ynoyl)-pyrrolidin-2-yl)imidazo[1,5-a]pyrazin-1-yl)-n-(pyridin-2-yl)benzamide” (Acerta Pharma B.V., priority 2015, published 2022).
Converted amounts (≈) assume the structure as drawn.

Assays:
[1] = Approximate solubility of Form I by stepwise dilution of a suspension; assay type: physicochemical; details: thermodynamic from solid, read-out: Solubility [S, mg/mL]
Method: Form I was also tested with respect to solubilities in various water-solvent mixtures and non-aqueous solvents. Solubility studies were conducted by a stepwise dilution of a suspension of about 10 mg of Form I in 0.1 mL of analytical grade solvent. Solubility values are estimated approximations and are subject to variable experimental error.

[2] = Plasma exposure after single oral administration in fasted beagle dogs; assay type: in vivo; details: nine fasted beagle dogs, single oral administration of 6 mg/kg, oral capsule
Method: The plasma exposure of Forms I and II of the free base of Formula (1) were compared in nine fasted beagle dogs after a single oral administration of 6 mg/kg of either form using batches with a similar particle size distribution. The experiment was performed in 5 weekly phases, with the Form II phase last. […] There was a good in vitro in vivo correlation for the dissolution rates of Form 1 and Form II, and the performance of each form of Formula (1) when delivered by oral capsule to dogs.

[3] = Human Phase 1 interaction study of calcium carbonate, omeprazole, or rifampin on Formula (1); assay type: in vivo; details: healthy adult subjects, acid reducing agents prior to administration
[4] = Intrinsic dissolution rate (paddle over stationary disc); assay type: physicochemical
Method: The intrinsic dissolution rate (IDR) was measured for Forms I and II of the free base of Formula (1). IDR was measured using a paddle over stationary disc equipped dissolution apparatus with concentration determined using liquid chromatographic analysis against a standard. […] Form I has an IDR of 6.8 mg/cm^2/min in simulated gastric fluid (SGF) (pH 1.2) and an IDR of 0.44 mg/cm^2/min in pH 2.5 HCl/NaCl buffer. Form II has an IDR of 5.4 mg/cm^2/min in SGF and an IDR of 0.35 mg/cm^2/min in pH 2.5 HCl/NaCl buffer.

[5] = Relative stability of solid forms (water activity, suspension equilibration, storage); assay type: physicochemical
Description: Critical water activity is a measure of the relative thermodynamic stability of Form I in comparison to the trihydrate Form II. […] Suspension equilibration experiments in ethanol-water mixtures, each having a different water activity, affirmed this conclusion. Water activities included in the experiments were maintained at: about 0.35 (ethanol-water ratio of 95:5, PP502-P32), about 0.53 (ethanol-water ratio of 9:1, PP502-P33) and about 0.77 (ethanol-water ratio of 7:3, PP502-P34).
Because the DVS results of Form II indicate reversible moisture sorption-desorption behavior (see above), tests were performed to confirm that storage of the dehydrated Form II sample (i.e., Form IV) at about 60% RH would again lead to the trihydrate form (Form II). […]

[6] = Solubility of Form I by HPLC in solvents and water-solvent mixtures; assay type: physicochemical; details: for solubility: organic solvent or mixture, thermodynamic from solid, read-out: Solubility (S, mg/mL)
Method: The solubility of recrystallized Formula (1) Form I was tested in various water-solvent mixtures and non-aqueous solvents.

[7] = Dynamic vapor sorption (DVS); assay type: physicochemical; details: DVS
Method: A gravimetric vapor sorption study was run using a standard procedure. Samples were run using a dynamic vapor sorption (DVS) analyzer. Sample sizes were approximately 10 mg. A moisture adsorption-desorption isotherm was performed as outlined below.

[8] = Aqueous solubility after equilibrating at 25° C. for three days (HPLC); assay type: physicochemical; details: water, 25° C., three days
Method: Finally, Form II was tested with respect to solubilities in various water-solvent mixtures and non-aqueous solvents. […] High-performance liquid chromatography (HPLC) was used to determine the concentration of Form II in the filtered solution at approximately 14 μg/mL, which translates into a critical water activity (aw) of about 0.59.

CC#CC(=O)N1CCC[C@H]1c1nc(-c2ccc(C(=O)Nc3ccccn3)cc2)c2c(N)nccn12 [Form I, (S)-4-(8-amino-3-(1-(but-2-ynoyl)pyrrolidin-2-yl)imidazo[1,5-α]pyrazin-1-yl)-N-(pyridin-2-yl)benzamide]
solubility ([1]; 2-propanol, organic solvent or mixture): < 1 mg/mL | solubility ([1]; MEK saturated with water, organic solvent or mixture): 26 to 30 mg/mL (≈ 55.9 to 64.4 mM) | solubility ([1]; THF:water 9:1, organic solvent or mixture): > 50 mg/mL | solubility ([1]; acetic acid, organic solvent or mixture): 102 to 204 mg/mL (≈ 219 to 438 mM) | solubility ([1]; acetic acid:MEK 1:9, organic solvent or mixture): 63 to 95 mg/mL (≈ 135 to 204 mM) | solubility ([1]; acetic acid:ethyl acetate 1:1, organic solvent or mixture): 92 to 184 mg/mL (≈ 198 to 395 mM) | solubility ([1]; acetic acid:ethyl acetate 1:9, organic solvent or mixture): 60 to 90 mg/mL (≈ 129 to 193 mM) | solubility ([1]; acetic acid:isopropanol 1:9, organic solvent or mixture): ~4 mg/mL (≈ 8.59 mM) | solubility ([1]; acetic acid:water 1:1, aqueous with cosolvent or surfactant or cyclodextrin): 104 to 208 mg/mL (≈ 223 to 447 mM) | solubility ([1]; acetone, organic solvent or mixture): ~2 mg/mL (≈ 4.3 mM) | solubility ([1]; acetone:water 4:1, organic solvent or mixture): 26 to 31 mg/mL (≈ 55.9 to 66.6 mM) | solubility ([1]; acetonitrile, organic solvent or mixture): < 1 mg/mL | solubility ([1]; ethanol, organic solvent or mixture): ~3 mg/mL (≈ 6.44 mM) | solubility ([1]; ethanol:water 1:1, aqueous with cosolvent or surfactant or cyclodextrin): ~6 mg/mL (≈ 12.9 mM) | solubility ([1]; ethanol:water 95:5, organic solvent or mixture): ~8 mg/mL (≈ 17.2 mM) | solubility ([1]; ethyl acetate, organic solvent or mixture): < 1 mg/mL | solubility ([1]; formic acid, organic solvent or mixture): 97 to 194 mg/mL (≈ 208 to 417 mM) | solubility ([1]; methanol, organic solvent or mixture): ~14 mg/mL (≈ 30.1 mM) | solubility ([1]; methanol:water 9:1, organic solvent or mixture): ~15 mg/mL (≈ 32.2 mM) | solubility ([1]; organic solvent or mixture, 2-butanone, MEK): < 1 mg/mL | solubility ([1]; organic solvent or mixture, N,N-dimethylformamide, DMF): 49 to 65 mg/mL (≈ 105 to 140 mM) | solubility ([1]; organic solvent or mixture, N-methyl-2-pyrrolidone, NMP): 39 to 49 mg/mL (≈ 83.8 to 105 mM) | solubility ([1]; organic solvent or mixture, dichloromethane, DCM): 36 to 43 mg/mL (≈ 77.3 to 92.4 mM) | solubility ([1]; organic solvent or mixture, dimethyl sulfoxide, DMSO): 39 to 49 mg/mL (≈ 83.8 to 105 mM) | solubility ([1]; organic solvent or mixture, ethanol:water 9:1 at 60° C.): > 60 mg/mL | solubility ([1]; organic solvent or mixture, methanol:MEK 1:1 at reflux): > 90 mg/mL | solubility ([1]; organic solvent or mixture, tetrahydrofuran, THF): ~5 mg/mL (≈ 10.7 mM) | solubility ([1]; trifluoroethane, organic solvent or mixture): 97 to 194 mg/mL (≈ 208 to 417 mM) | exposure [2]: higher exposure in the beagle than Form II | exposure after treatment with acid reducing agents [3]: significant decreases in exposure | increase in IDR relative to Form II ([4]; at both conditions (SGF and pH 2.5 buffer)): ~26% | intrinsic dissolution rate (IDR) ([4]; pH 2.5 HCl/NaCl buffer): 0.44 mg/cm^2/min | intrinsic dissolution rate (IDR) ([4]; simulated gastric fluid (SGF) (pH 1.2)): 6.8 mg/cm^2/min | form recovered after suspension equilibration in methanol ([5]; 5° C., methanol, mixture of Forms (I), VI, and VII, five days): pure Form I was recovered | relative thermodynamic stability of Form I and Form II ([5]; room temperature, depending on water activity): Below an aw of about 0.59, Form I is more stable | Solubility (S, mg/mL) ([6]; 1-propanol, 25° C.): 4.0 mg/mL (≈ 8.59 mM) | Solubility (S, mg/mL) ([6]; ethyl acetate, 25° C.): 1.5 mg/mL (≈ 3.22 mM) | solubility ([6]; 1-propanol, 5° C.): 3.4 mg/mL (≈ 7.3 mM) | solubility ([6]; 1-propanol, 60° C.): 14.4 mg/mL (≈ 30.9 mM) | solubility ([6]; 1-propanol, r.t.): 4.7 mg/mL (≈ 10.1 mM) | solubility ([6]; 2-propanol, 25° C.): 1.3 mg/mL (≈ 2.79 mM) | solubility ([6]; MEK, 25° C.): 3.7 mg/mL (≈ 7.95 mM) | solubility ([6]; THF, 25° C.): 20.4 mg/mL (≈ 43.8 mM) | solubility ([6]; acetone at RFT): 10 mg/mL (≈ 21.5 mM) | solubility ([6]; acetone, 25° C.): 4.1 mg/mL (≈ 8.81 mM) | solubility ([6]; ethanol, 5° C.): 3.6 mg/mL (≈ 7.73 mM) | solubility ([6]; ethanol, 25° C.): 4.4 mg/mL (≈ 9.45 mM) | solubility ([6]; ethanol, 50° C.): 10.2 mg/mL (≈ 21.9 mM) | solubility ([6]; ethanol-water 9:1, 25° C.): 23.7 mg/mL (≈ 50.9 mM) | solubility ([6]; ethanol-water 96:4, 0° C.): 6.7 mg/mL (≈ 14.4 mM) | solubility ([6]; ethanol-water 96:4, 25° C.): 10 mg/mL (≈ 21.5 mM) | solubility ([6]; ethanol-water 96:4, 60° C.): 24.7 mg/mL (≈ 53.1 mM) | solubility ([6]; methanol, 25° C.): 19.9 mg/mL (≈ 42.7 mM) | hygroscopicity (DVS), in words [7]: not hygroscopic | total weight gain observed between 0% RH and 80% RH [7]: about 0.17% | water content at 50% RH [7]: approximately 0.25% | water absorption within the timeframe of the test ([7]; at 95% RH): less than 0.3% | hygroscopicity according to the European Pharmacopoeia (EP) classification ([7]; weight increase at 80% RH): non-hygroscopic (non-hygroscopic: <0.2%) | maximum water content (saturation) at about 95% RH ([7]; listed as recrystallized Formula (1)): approximately 0.5% | solid residue after aqueous solubility test (PXRD) [8]: Form I was retained
